US20110288114A1, “COMPOSITIONS FOR THE TREATMENT OF FIBROTIC DISEASES OR CONDITIONS” (Kinemed, Inc., priority 2008, published 2011)
“Also recorded” adds a separate entry of the source.

Columns and labels:
[1] = as alternative to corticosteroid and/or immunosuppressive drugs; cited from earlier work
[2] = test system: TGF-β signaling; details: low concentrations of paclitaxel; nude mouse model of scleroderma; cited from earlier work
[3] = test system: liver collagen content (ANIT-induced liver fibrosis); assay: ANIT-induced liver fibrosis: histological collagen content (Masson's Trichrome stain); assay type: in vivo, mice; details: noscapine administered with ANIT, FIG. 10
Method: Mice were fed a diet adulterated with 0.05% (w/w) ANIT or a control diet for two weeks in order to induce a fibrotic response in the liver. The mice were labeled with 8% ^2H2O (Spectra Stable Isotopes, Columbia, Md.) beginning on the day that ANIT administration began. […] A small sample (75 to 80 mg) of the liver was excised from the lateral right lobe, immediately fixed in formalin, and sent for histological examination (Premier Laboratory LLC, Longmont Colo., USA). Briefly, paraffin embedded slides were prepared from the formalin-fixed tissue and then treated with Masson's Trichrome stain for collagen distribution. Prepared slides were scanned, photographed, and subsequently analyzed for collagen content using ImageScope software (Aperio Technologies Inc., Vista Ca). Statistics: An analysis of variance followed by a Dunnett's test for comparison with ANIT/vehicle control was used to analyze the data (SigmaStat). Data were considered significant at p<0.05.

[4] = test system: α-SMA positive lung cells (activated myofibroblasts); assay: Bleomycin-induced lung fibrosis: histology of αSMA positive lung cells; assay type: in vivo, mice; details: relative to vehicle+bleomycin control; 2 weeks after bleomycin; FIG. 4
Method: Protocol: Bleomycin (Sigma-Aldrich) was dissolved in sterile saline at a concentration of 1.05 U/ml. 30 μl of the bleomycin solution or the same volume of vehicle (sham control) was installed into the trachea of female C57BI/6 mice by the trans-oral route to yield a dose of 1.5 U/kg of bleomycin. […] Label (8% ^2H2O in drinking water) and drug administration continued for the 2 week study duration. […] The differentiation of fibroblastic cells into myofibroblasts which express α-smooth muscle actin (α-SMA) is a major process the development of fibrosis. αSMA is a well recognized indicator of activated myofibroblasts. A small sample (5 to 20 mg) of the lung was excised from the center of the left lobe, immediately fixed in formalin, and sent for histological examination (Premier Laboratory LLC, Longmont Colo., USA). Briefly, paraffin embedded slides were prepared from the formalin-fixed tissue and then stained using an antibody for αSMA. Prepared slides were scanned, photographed, and subsequently analyzed for the presence of αSMA positive cells using ImageScope software (Aperio Technologies Inc., Vista Ca). Statistics: An analysis of variance followed by a Dunnett's test for comparison with drug vehicle/bleomycin control was used to analyze the data (SigmaStat). Data were considered significant at p<0.05.

[5] = test system: total collagen (OHP) content of the lung (bleomycin-induced lung fibrosis); assay: Bleomycin-induced lung fibrosis: total OHP content of lung by chloramine-t assay; assay type: in vivo, mice; details: noscapine for 2 weeks after bleomycin 1.5 U/kg
Method: Protocol: Bleomycin (Sigma-Aldrich) was dissolved in sterile saline at a concentration of 1.05 U/ml. 30 μl of the bleomycin solution or the same volume of vehicle (sham control) was installed into the trachea of female C57BI/6 mice by the trans-oral route to yield a dose of 1.5 U/kg of bleomycin. […] Label (8% ^2H2O in drinking water) and drug administration continued for the 2 week study duration. […] In addition to the GC/MS analysis, the absolute amount of collagen in the samples was determined by a chloramine-t assay of total OHP, a well established colorimetric method for determining OHP content. Samples of the original homogenate (400 μl) were hydrolyzed (HCl, 500 μl), dried, re-suspended in 1 ml of assay buffer, and incubated overnight. 150 μl of the suspension was pipetted into wells of a 96 well plate. 75 μl of chloramine-t was added to the well and the plate was incubated at room temperature for 20 min. Dimethylaminobenzaldehyde (75 μl) was then added to each well. The plate was incubated at 60° C. for 15 min before being read on a microquant (Bio-Tek Instruments, Inc. MQX200) at 540 nm. OHP standards were prepared and analyzed with the samples. Results were analyzed using GraphPad Prism to interpolate values from the standard curve. […]

[6] = test system: OHP content of the liver (ANIT-induced liver fibrosis); assay: ANIT-induced liver fibrosis: absolute amount of OHP in liver by chloramine-t assay; assay type: in vivo, mice
Method: Mice were fed a diet adulterated with 0.05% (w/w) ANIT or a control diet for two weeks in order to induce a fibrotic response in the liver. The mice were labeled with 8% ^2H2O (Spectra Stable Isotopes, Columbia, Md.) beginning on the day that ANIT administration began. […] In addition to the GC/MS analysis, the absolute amount of OHP in the samples was determined by a chloramine-t assay as described above for the bleomycin studies. Statistics: An analysis of variance followed by a Dunnett's test for comparison with ANIT/vehicle control was used to analyze the data (SigmaStat). Data were considered significant at p<0.05.

[7] = test system: collagen synthesis in the lung (bleomycin-induced lung fibrosis); assay: Bleomycin-induced lung fibrosis: fractional synthesis of collagen (2H2O labeling, GC/MS of OHP); assay type: in vivo, mice
Method: Bleomycin administration induces at least a three fold increase in the fractional synthesis of OHP as measured by GC/MS. Inhibition or reversal of the fibrotic response is determined by a reduction in OHP synthesis when compared with the bleomycin-vehicle control.
Animals: Female C57BU6 mice, 10 weeks of age at the start of the study were used. Food and water were available ad lib for the study duration. Study groups are as stated in table 1.
Protocol: Bleomycin (Sigma-Aldrich) was dissolved in sterile saline at a concentration of 1.05 U/ml. 30 μl of the bleomycin solution or the same volume of vehicle (sham control) was installed into the trachea of female C57BI/6 mice by the trans-oral route to yield a dose of 1.5 U/kg of bleomycin. […] Label (8% ^2H2O in drinking water) and drug administration continued for the 2 week study duration.
On the day following the last drug administration, the mice were placed under heavy anesthesia and blood was collected via cardiac puncture. The lung was perfused with isotonic saline, removed and weighed. The lung was homogenized with a MiniBeadbeater-96™ (Biospec, Bartlesville, Okla.) bead mill, and the total volume of homogenate was determined. The homogenate was subjected to acetone precipitation in order to obtain the total tissue protein for OHP assessment. The proteins were hydrolyzed by incubation in HCl, dried under vacuum and then suspended in a solution of 50% acetonitrile, 50 mM K2HPO4 and pentafluorobenzyl bromide before incubation. Derivatives were extracted into ethyl acetate, and the top layer was removed and dried by vacuum centrifugation. […] The derivatized OHP was analyzed by GC/MS, performed in the negative chemical ionization mode. […] Incorporation of ^2H into OHP was calculated as the molar fraction of molecules with one excess mass unit above the natural abundance fraction (EM1). Fractional synthesis (f) of collagen was calculated as the ratio of the EM1 value in protein-bound OHP to the maximal value possible at the body ^2H2O enrichment present. […]

[8] = test system: collagen synthesis in the liver (ANIT-induced liver fibrosis); assay: ANIT-induced liver fibrosis: fractional synthesis of collagen (2H2O labeling, GC/MS of OHP); assay type: in vivo, mice; details: for amount of newly synthesized collagen in the liver: separate study
Description: Alpha-Naphthylisothiocyanate (ANIT) is a hepatotoxicant that damages biliary cells and hepatocytes. Prolonged exposure to ANIT induces bile duct hyperplasia and biliary fibrosis, as well as liver injury. ANIT is conjugated with glutathione in hepatocytes and secreted into the bile (reviewed in Xu, 2004). However, the ANIT-glutathione complexes are unstable and rapidly dissociate in the bile causing the hepatocytes to reuptake the drug. Recycling can continue for many rounds, delaying ANIT elimination and depleting glutathione. In addition to its direct cytotoxic effects, ANIT also induces a hepatic inflammatory response that contributes to the tissue injury. Chronic administration of ANIT to rodents results in a significant increase in liver collagen and is used as an animal model of liver fibrosis (Xu et al, 2004). […] Inhibition or reversal of the fibrotic response is determined by a reduction in collagen synthesis when compared with the ANIT-vehicle control.
Subjects: Female C57BU6 mice, 10 weeks of age at the start of the study were used. The animals were housed in groups of 5, under standard laboratory conditions, with food and water available ad lib. Study groups are as stated in table 2 (po signifies oral gavage).
Mice were fed a diet adulterated with 0.05% (w/w) ANIT or a control diet for two weeks in order to induce a fibrotic response in the liver. The mice were labeled with 8% ^2H2O (Spectra Stable Isotopes, Columbia, Md.) beginning on the day that ANIT administration began.
On the day following the last drug administration, mice were placed under heavy anesthesia, and the liver was perfused and removed. Liver tissue was homogenized with a MiniBeadbeater 96™ bead mill (Biospec, Bartlesville, Okla.) followed by acetone precipitation and vacuum drying. Proteins were hydrolyzed in 6 N HCl (110° C., 16 hours), dried under vacuum and suspended in 1 mL 50% acetonitrile, 50 mM K2HPO4, pH 11. Pentafluorobenzyl bromide was added before the sealed mixture was incubated (100° C.; 1 hour) and extracted into ethyl acetate. The top layer was removed and dried by addition of solid Na2SO4 followed by vacuum centrifugation. Samples were incubated with 50 μL methyl imidazole and 100 μL MTBSTFA, (100° C. for 30 min). The derivative was extracted in water/petroleum ether and dried with Na2SO4. Selected ion monitoring was at mass-to-charge ratios of 445, 446, and 447 for the OH-proline derivatives. Mole % excess M1 enrichment (EM1) and fractional synthesis (f) are calculated.
Statistics: An analysis of variance followed by a Dunnett's test for comparison with ANIT/vehicle control was used to analyze the data (SigmaStat). Data were considered significant at p<0.05.

Q: With COc1cc2c(c(OC)c1OC)-c1ccc(OC)c(=O)cc1[C@@H](NC(C)=O)CC2 [Colchicine, colchicine] as the compound, how does the “safety and efficacy in the treatment of IPF” value [1] read?
A: The value was “safer, but not effective”.

Q: Which results are given for CC(=O)O[C@H]1C(=O)[C@@]2(C)[C@H]([C@H](OC(=O)c3ccccc3)[C@]3(O)C[C@H](OC(=O)[C@H](O)[C@@H](NC(=O)c4ccccc4)c4ccccc4)C(C)=C1C3(C)C)[C@]1(OC(C)=O)CO[C@@H]1C[C@@H]2O [Paclitaxel, paclitaxel]?
A: Smad2 and Smad3 phosphorylation in SSc grafts [2]: markedly suppressed Smad2 and Smad3 phosphorylation; collagen deposition in SSc grafts [2]: decreased collagen deposition

Q: Which results are given for COc1ccc2c(c1OC)C(=O)O[C@@H]2[C@H]1c2c(cc3c(c2OC)OCO3)CCN1C [noscapine]?
A: histologically determined collagen content of liver [3]: significantly decreased ANIT-induced collagen content; also recorded: significant decrease in collagen content; number of alpha smooth muscle actin (αSMA) positive cells in lung [4]: significantly reduced the number of myofibroblasts activated by bleomycin; also recorded: significantly decreased the number of alpha smooth muscle actin (αSMA) positive cells; total collagen (OHP) content of the lung ([5]; chloramine-t assay, FIG. 2): blocked by noscapine in a dose related manner; absolute amount of newly synthesized collagen in the lung (f times total OHP content) ([5]; FIG. 3): significantly decreased; total amount of OHP in the whole liver ([6]; chloramine-t assay, noscapine po with ANIT for 2 weeks, vs ANIT plus vehicle control, FIG. 8): significantly reduced the ANIT-induced elevation of OHP content; ANIT-induced elevation of collagen synthesis, absolute (f x [OHP]) in the liver ([6]; noscapine at 30 and 100 mg/kg po, p<0.05 vs ANIT/vehicle, FIG. 9): significantly reduced the ANIT-induced elevation of collagen synthesis; amount of newly synthesized collagen in the whole liver (f x [OHP]) ([6]; noscapine po with ANIT for 2 weeks, vs ANIT plus vehicle control, FIG. 9): significantly reduced; bleomycin-induced increase of collagen synthesis (fractional synthesis, percent labeled OHP, f) ([7]; noscapine 300 mg/kg po (oral gavage) for 2 weeks from the day of bleomycin, FIG. 5): blocked the bleomycin-induced increase of collagen synthesis; percent of newly synthesized collagen (% new OHP, f) ([7]; noscapine in diet (2 g/kg food, approx. 300 mg/kg) for 2 weeks from the day of bleomycin, FIG. 6): tended to reduce the % new OH—P, but the effect was not statistically significant; also recorded: tended to reduce the percent of newly synthesized collagen; bleomycin-induced increase of collagen synthesis (fractional synthesis, percent labeled OHP, f) ([7]; noscapine ip (10, 30, 100 mg/kg) for 2 weeks from the day of bleomycin 1.5 U/kg trans-oral, FIG. 1): blocked the bleomycin-induced increase of collagen synthesis; ANIT-induced elevation of new OHP (percent labeled OHP, f) in the liver ([8]; noscapine at 30 and 100 mg/kg po, p<0.05 vs ANIT/vehicle, FIG. 7): significantly reduced the ANIT-induced elevation of OHP; percent of newly synthesized collagen in the liver (percent labeled OHP, f) ([8]; noscapine po (oral gavage) 10, 30, 100 mg/kg with 0.05% ANIT diet for 2 weeks, FIG. 7): dose dependently reduced the percent of newly synthesized collagen; amount of newly synthesized collagen in the liver ([8]; noscapine 300 mg/kg by oral gavage once per day with ANIT, FIG. 12): tended to decrease the amount of newly synthesized collagen; amount of newly synthesized collagen in the liver ([8]; noscapine 300 mg/kg in the diet (2 g/kg food) with ANIT, FIG. 11): tended to decrease the amount of newly synthesized collagen
